Experimental data as given in patent US20250152585A1, “PHARMACEUTICAL COMPOUND” (Duke Street Bio Limited, priority 2022, published 2025).
Where two headings read alike, the source gives them in different places.

Legend:
[1] = target: T1, N-terminally FLAG-tagged PARP2 (amino acids 1-583) (Homo sapiens, UniProt Q9UGN5); experiment: PARP2 probe displacement HTRF assay; assay type: binding; conditions: binned Kd
T1 construct: N-terminally FLAG-tagged PARP2 (amino acids 1-583)
Description: Data analysis was performed identical as for PARP1.

[2] = target: T2, full length N-terminally FLAG-tagged PARP1 (Homo sapiens, UniProt P09874); experiment: PARP1 probe displacement HTRF assay; conditions: for Selectivity: PARP1 over PARP2, ratio Kd (PARP2)/Kd (PARP1); for Kd: binned Kd
T2 sequence (P09874 whole entry): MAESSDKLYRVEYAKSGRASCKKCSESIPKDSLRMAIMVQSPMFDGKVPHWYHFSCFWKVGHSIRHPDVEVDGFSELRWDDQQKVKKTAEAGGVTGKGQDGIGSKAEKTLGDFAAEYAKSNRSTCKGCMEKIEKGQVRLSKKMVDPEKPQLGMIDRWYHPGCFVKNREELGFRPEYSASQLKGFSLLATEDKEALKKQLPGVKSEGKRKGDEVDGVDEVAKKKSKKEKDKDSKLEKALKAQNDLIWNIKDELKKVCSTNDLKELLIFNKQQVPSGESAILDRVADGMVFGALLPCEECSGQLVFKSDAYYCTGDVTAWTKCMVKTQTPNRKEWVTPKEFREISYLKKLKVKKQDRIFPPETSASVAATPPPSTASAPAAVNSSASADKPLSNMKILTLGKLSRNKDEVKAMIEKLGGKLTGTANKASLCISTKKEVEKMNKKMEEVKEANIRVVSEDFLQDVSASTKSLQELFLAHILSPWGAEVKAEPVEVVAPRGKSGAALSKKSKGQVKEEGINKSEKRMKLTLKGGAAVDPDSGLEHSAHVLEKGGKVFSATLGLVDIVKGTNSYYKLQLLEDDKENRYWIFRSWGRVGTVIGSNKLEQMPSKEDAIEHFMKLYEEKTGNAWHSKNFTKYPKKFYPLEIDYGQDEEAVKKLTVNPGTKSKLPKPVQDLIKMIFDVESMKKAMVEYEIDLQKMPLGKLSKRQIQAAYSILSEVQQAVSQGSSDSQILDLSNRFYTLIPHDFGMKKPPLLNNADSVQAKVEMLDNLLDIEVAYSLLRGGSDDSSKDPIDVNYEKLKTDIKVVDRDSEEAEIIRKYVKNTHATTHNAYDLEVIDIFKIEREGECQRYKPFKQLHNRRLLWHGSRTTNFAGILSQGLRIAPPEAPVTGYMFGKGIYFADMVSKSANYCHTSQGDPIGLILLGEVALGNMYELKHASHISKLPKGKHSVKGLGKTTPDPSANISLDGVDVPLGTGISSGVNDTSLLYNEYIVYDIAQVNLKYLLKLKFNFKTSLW

[3] = target: T2, full length N-terminally FLAG-tagged PARP1; experiment: PARP1 biochemical DELFIA assay (auto-PARylation); design: recombinant full length human N-terminally FLAG-tagged PARP1
[4] = read-out: PARP1 HTRF, probe displacement HTRF
[5] = binned IC50, biochemical auto-PARylation assay
[6] = read-out: PARP1 HTRF, PARP1 probe displacement HTRF
[7] = binned IC50, PARP1 biochemical DELFIA assay
[8] = PARP1 HTRF, PARP1 probe displacement HTRF

T1 sequence (Q9UGN5 whole entry, the tested form may be a part): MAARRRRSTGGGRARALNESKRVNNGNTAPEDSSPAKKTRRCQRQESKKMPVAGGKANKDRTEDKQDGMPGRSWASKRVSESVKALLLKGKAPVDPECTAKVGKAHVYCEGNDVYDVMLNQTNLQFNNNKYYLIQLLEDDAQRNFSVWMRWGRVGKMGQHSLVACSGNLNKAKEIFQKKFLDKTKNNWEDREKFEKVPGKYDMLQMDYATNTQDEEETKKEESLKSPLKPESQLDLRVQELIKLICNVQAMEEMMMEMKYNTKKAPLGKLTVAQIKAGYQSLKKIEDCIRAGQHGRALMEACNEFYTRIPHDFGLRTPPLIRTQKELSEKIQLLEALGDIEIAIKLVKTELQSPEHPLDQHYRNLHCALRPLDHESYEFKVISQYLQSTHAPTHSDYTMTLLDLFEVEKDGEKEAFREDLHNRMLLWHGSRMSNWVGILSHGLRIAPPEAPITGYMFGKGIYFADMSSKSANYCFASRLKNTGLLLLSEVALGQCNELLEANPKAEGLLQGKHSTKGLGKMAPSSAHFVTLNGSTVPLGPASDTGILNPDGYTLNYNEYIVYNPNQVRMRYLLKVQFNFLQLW

Row | Structure (SMILES) | Kd ([1]; probe displacement HTRF) | Selectivity ([2]; probe displacement HTRF) | Kd [2, 4] | IC50 [3, 5] | Kd ([1]; PARP2 probe displacement HTRF) | Kd [2, 6] | IC50 [3, 7] | Kd [2, 8] | Kd ([2]; PARP1 HTRF, probe displacement HTRF)
1 | CNC(=O)c1ncc(N2CCC(N3CCC(c4cc5ccc(F)cc5c(=O)[nH]4)C3)CC2)c(C)n1 (single isomer, unassigned) [Compound 265b] | 100 to 1000 nM | +++ (+++ indicate a value of at least 100) | < 10 nM | < 10 nM |  |  |  |  | 
2 | CNC(=O)c1ccc(N2CCC(N3CCC(c4nc(C)cc(=O)[nH]4)C3)CC2)cn1 (single isomer, unassigned) [Compound 97b] |  | − (− indicates a value of less than 10) |  |  | > 10000 nM | 100 to 1000 nM | 100 to 1000 nM |  | 
3 | CNC(=O)c1ccc(N2CCC(N3CCCC(c4nc5cnccc5c(=O)[nH]4)C3)CC2)cn1 (single isomer, unassigned) [Compound 106a] |  | + (+ indicates a value of 10 to less than 50) |  |  | > 10000 nM | 100 to 1000 nM | 100 to 1000 nM |  | 
4 | CCCc1ccc(C2CCN(C3CCN(c4ccc(C(=O)NC)nc4F)CC3)C2)[nH]c1=O (single isomer, unassigned) [Compound 269a] | 1000 to 10000 nM | +++ (+++ indicate a value of at least 100) | < 10 nM | < 10 nM |  |  |  |  | 
5 | CNC(=O)c1ccc(N2CCC(N3CCCC(c4nc5ccccc5c(=O)[nH]4)C3)CC2)cn1 (single isomer, unassigned) [Compound 6a, N-methyl-5-(3-(4-oxo-3,4-dihydroquinazolin-2-yl)-[1,4′-bipiperidin]-1′-yl)picolinamide] |  | +++ (+++ indicate a value of at least 100) |  |  | > 10000 nM |  | < 10 nM | < 10 nM | 
6 | CNC(=O)c1ccc(N2CCC(N3CCC(c4ccc(OC)c(=O)[nH]4)C3)CC2)c(C(F)(F)F)n1 (single isomer, unassigned) [Compound 152a] |  | +++ (+++ indicate a value of at least 100) |  |  | 1000 to 10000 nM | < 10 nM | < 10 nM |  | 
7 | CNC(=O)c1ncc(N2CCC(N3CCC(c4cc5cccc(F)c5c(=O)[nH]4)C3)CC2)c(C(F)(F)F)n1 (single isomer, unassigned) [Compound 277a] | 1000 to 10000 nM | +++ (+++ indicate a value of at least 100) | < 10 nM | < 10 nM |  |  |  |  | 
8 | CNC(=O)c1ccc(N2CCC(N3CCC(c4[nH]c(=O)c5ccccc5c4Cl)C3)CC2)cn1 (single isomer, unassigned) [Compound 219a] |  | ++ (++ indicates a value of 50 to less than 100) |  |  | 10 to 100 nM | < 10 nM | < 10 nM |  | 
9 | CNC(=O)c1ccc(N2CCC(N3CCCC(c4nc5ccccc5c(=O)[nH]4)C3)CC2)cn1 (single isomer, unassigned) [Compound 6b, N-methyl-5-(3-(4-oxo-3,4-dihydroquinazolin-2-yl)-[1,4′-bipiperidin]-1′-yl)picolinamide] |  | + (+ indicates a value of 10 to less than 50) |  |  | 1000 to 10000 nM |  | 100 to 1000 nM | 100 to 1000 nM | 
10 | N#Cc1ccc(N2CCC(N3CCC(c4nc5ccccc5c(=O)[nH]4)C3)CC2)cn1 (single isomer, unassigned) [Compound 69a] |  | ++ (++ indicates a value of 50 to less than 100) |  |  | 100 to 1000 nM | 10 to 100 nM | < 10 nM |  | 
11 | CCN1CCCc2c1nc(C13CC(C1)N(C1CCN(c4ccc(C(=O)NC)nc4F)CC1)C3)[nH]c2=O [Compound 384] | 100 to 1000 nM | + (+ indicates a value of 10 to less than 50) |  | < 10 nM |  |  |  |  | < 10 nM
12 | CNC(=O)c1ccc(OCCN2CCCC(Cc3nc4ccccc4c(=O)[nH]3)C2)cn1 (single isomer, unassigned) [Compound 14b, N-methyl-5-(2-(3-((4-oxo-3,4-dihydroquinazolin-2-yl)methyl)piperidin-1-yl)ethoxy)picolinamide] |  | +++ (+++ indicate a value of at least 100) |  |  | > 10000 nM |  | 10 to 100 nM | 10 to 100 nM | 
13 | CNC(=O)c1ccc(N2CCC(N3CCCC(c4nc5ccccc5c(=O)[nH]4)C3)CC2)c(C(F)F)n1 (racemic) [Compound 156rac] |  | ++ (++ indicates a value of 50 to less than 100) |  |  | > 10000 nM | 10 to 100 nM | 10 to 100 nM |  | 
14 | CNC(=O)c1cnc(N2CCC(N3CCC(c4nc5ccccc5c(=O)[nH]4)C3)CC2)nc1 (racemic) [Compound 318rac] | 100 to 1000 nM | + (+ indicates a value of 10 to less than 50) | 10 to 100 nM | 10 to 100 nM |  |  |  |  | 
15 | CNC(=O)c1ccc(N2CCC(N3CCCC(c4nc5ccccc5c(=O)[nH]4)C3)CC2)c(C)n1 (single isomer, unassigned) [Compound 131a] |  | + (+ indicates a value of 10 to less than 50) |  |  | 1000 to 10000 nM | 100 to 1000 nM | 10 to 100 nM |  | 
16 | N#Cc1ccc(N2CCC(N3CCCC(c4nc5ccccc5c(=O)[nH]4)C3)CC2)cn1 (single isomer, unassigned) [Compound 70a] |  | + (+ indicates a value of 10 to less than 50) |  |  | 1000 to 10000 nM | 100 to 1000 nM | 10 to 100 nM |  | 

Row | Structure (SMILES) | Kd ([1]; probe displacement HTRF) | Selectivity ([2]; probe displacement HTRF) | Kd [2, 4] | IC50 [3, 5] | Kd ([1]; PARP2 probe displacement HTRF) | Kd [2, 6] | IC50 [3, 7] | Kd [2, 8] | Kd ([2]; PARP1 HTRF, probe displacement HTRF)
17 | O=c1[nH]c(C2CCN(C3CCN(c4ccc(-c5nnn[nH]5)nc4)CC3)C2)nc2ccccc12 (racemic) [Compound 263rac] | 100 to 1000 nM | − (− indicates a value of less than 10) | 100 to 1000 nM | 10 to 100 nM |  |  |  |  | 
18 | CNC(=O)c1ccc(N2CCC(N3CCC(c4cnc(CC(F)(F)F)c(=O)[nH]4)C3)CC2)cn1 (single isomer, unassigned) [Compound 287a] | > 10000 nM | ++ (++ indicates a value of 50 to less than 100) | 10 to 100 nM | 10 to 100 nM |  |  |  |  | 
19 | CCc1ccc(C2CCN(C3CCN(c4cnc(C(=O)NC5CC5)c(F)c4)CC3)C2)[nH]c1=O (single isomer, unassigned) [Compound 408a] | 100 to 1000 nM | +++ (+++ indicate a value of at least 100) | < 10 nM | < 10 nM |  |  |  |  | 
20 | O=c1[nH]c(C2CCN(C3CCN(c4ccc(Cl)cc4)CC3)C2)nc2ccccc12 (single isomer, unassigned) [Compound 43a] |  | − (− indicates a value of less than 10) |  |  | 100 to 1000 nM | 10 to 100 nM | 100 to 1000 nM |  | 
21 | CC(=O)Nc1ccc(N2CCC(N3CCC(c4cc5ccccc5c(=O)[nH]4)C3)CC2)cn1 (single isomer, unassigned) [Compound 306a] | 1000 to 10000 nM | + (+ indicates a value of 10 to less than 50) | 100 to 1000 nM | 100 to 1000 nM |  |  |  |  | 
22 | CNC(=O)c1ccc(N2CCC(N3CCC(c4ccc(CCO)c(=O)[nH]4)C3)CC2)cn1 (racemic) [Compound 286rac] | > 10000 nM | +++ (+++ indicate a value of at least 100) | 10 to 100 nM | 10 to 100 nM |  |  |  |  | 
23 | CNC(=O)c1ccc(N2CCC(N3CCC(c4nc5[nH]nc(C(F)(F)F)c5c(=O)[nH]4)C3)CC2)c(F)n1 (single isomer, unassigned) [Compound 267b] | 10 to 100 nM | +++ (+++ indicate a value of at least 100) | < 10 nM | < 10 nM |  |  |  |  | 
24 | CNC(=O)c1ccc(N2CCC(N3CCC(c4ccc(CCOC)c(=O)[nH]4)C3)CC2)cn1 (single isomer, unassigned) [Compound 240b] | > 10000 nM | − (− indicates a value of less than 10) | 1000 to 10000 nM | 1000 to 10000 nM |  |  |  |  | 
25 | CNC(=O)c1ccc(N2CCC(N3CCC(c4nc5onc(C)c5c(=O)[nH]4)C3)CC2)cn1 (single isomer, unassigned) [Compound 149b] |  | − (− indicates a value of less than 10) |  |  | > 10000 nM | 1000 to 10000 nM | 1000 to 10000 nM |  | 
26 | CNC(=O)c1ccc(N2CCC(N3CCC(c4nc5sc6c(c5c(=O)[nH]4)CCC6)C3)CC2)cn1 (single isomer, unassigned) [Compound 189a] |  | − (− indicates a value of less than 10) |  |  | 100 to 1000 nM | 10 to 100 nM | 10 to 100 nM |  | 
27 | CNC(=O)c1ccc(N2CCC(N3CCC(c4cc5cccc(F)c5c(=O)[nH]4)C3)CC2)c(C#N)c1 (single isomer, unassigned) [Compound 345a] | 100 to 1000 nM | +++ (+++ indicate a value of at least 100) | < 10 nM | < 10 nM |  |  |  |  | 
28 | CNC(=O)c1ccc(N2CCC(N3CCC(c4nc5c(c(=O)[nH]4)COC5)C3)CC2)cn1 (single isomer, unassigned) [Compound 272a] | > 10000 nM | − (− indicates a value of less than 10) | > 10000 nM | > 10000 nM |  |  |  |  | 
29 | CNC(=O)c1ccc(N2CCC(N3CCC(c4nc5ccccc5c(=O)[nH]4)C3)CC2)c(C(F)(F)F)n1 (single isomer, unassigned) [Compound 139b] |  | +++ (+++ indicate a value of at least 100) |  |  | 1000 to 10000 nM | 10 to 100 nM | 10 to 100 nM |  | 
30 | CCc1ccc(C2CCN(CC3CCN(c4ccc(C(=O)NC)nc4)CC3)CC2)[nH]c1=O [Compound 47] |  | − (− indicates a value of less than 10) |  |  | > 10000 nM |  | 100 to 1000 nM | 100 to 1000 nM | 
31 | CNC(=O)c1ccc(N2CCC(N3CCC(c4ccc(Cl)c(=O)[nH]4)C3)CC2)cn1 (single isomer, unassigned) [Compound 201b] |  | +++ (+++ indicate a value of at least 100) |  |  | 1000 to 10000 nM | < 10 nM | < 10 nM |  | 
